Earlier results in paper PMC13427755 (Nature Communications, 2026).
Read-outs that look alike come from different tables or passages of the source.

Test system: SP-D
Settings: at 12 weeks, cited from earlier work

| Compound | decrease in SP-D (CAPACITY study of pirfenidone) [%] | decrease in SP-D (INMARK study of nintedanib) [%] |
| --- | --- | --- |
| Cc1ccc(=O)n(-c2ccccc2)c1 [pirfenidone] | 5 | – |
| COC(=O)c1ccc2c(c1)NC(=O)/C2=C(\Nc1ccc(N(C)C(=O)CN2CCN(C)CC2)cc1)c1ccccc1 [nintedanib] | – | 4 |
